Peptide text beside a SMILES is read from it.
Each molecule was assayed against Sodium/calcium exchanger 1 (Cavia porcellus) (UniProt P48766) (assay: Inhibitory activity against Sodium/Calcium exchanger in isolated guinea pig left atria).
Chain of Sodium/calcium exchanger 1 (Cavia porcellus) (P48766 whole entry, looked up): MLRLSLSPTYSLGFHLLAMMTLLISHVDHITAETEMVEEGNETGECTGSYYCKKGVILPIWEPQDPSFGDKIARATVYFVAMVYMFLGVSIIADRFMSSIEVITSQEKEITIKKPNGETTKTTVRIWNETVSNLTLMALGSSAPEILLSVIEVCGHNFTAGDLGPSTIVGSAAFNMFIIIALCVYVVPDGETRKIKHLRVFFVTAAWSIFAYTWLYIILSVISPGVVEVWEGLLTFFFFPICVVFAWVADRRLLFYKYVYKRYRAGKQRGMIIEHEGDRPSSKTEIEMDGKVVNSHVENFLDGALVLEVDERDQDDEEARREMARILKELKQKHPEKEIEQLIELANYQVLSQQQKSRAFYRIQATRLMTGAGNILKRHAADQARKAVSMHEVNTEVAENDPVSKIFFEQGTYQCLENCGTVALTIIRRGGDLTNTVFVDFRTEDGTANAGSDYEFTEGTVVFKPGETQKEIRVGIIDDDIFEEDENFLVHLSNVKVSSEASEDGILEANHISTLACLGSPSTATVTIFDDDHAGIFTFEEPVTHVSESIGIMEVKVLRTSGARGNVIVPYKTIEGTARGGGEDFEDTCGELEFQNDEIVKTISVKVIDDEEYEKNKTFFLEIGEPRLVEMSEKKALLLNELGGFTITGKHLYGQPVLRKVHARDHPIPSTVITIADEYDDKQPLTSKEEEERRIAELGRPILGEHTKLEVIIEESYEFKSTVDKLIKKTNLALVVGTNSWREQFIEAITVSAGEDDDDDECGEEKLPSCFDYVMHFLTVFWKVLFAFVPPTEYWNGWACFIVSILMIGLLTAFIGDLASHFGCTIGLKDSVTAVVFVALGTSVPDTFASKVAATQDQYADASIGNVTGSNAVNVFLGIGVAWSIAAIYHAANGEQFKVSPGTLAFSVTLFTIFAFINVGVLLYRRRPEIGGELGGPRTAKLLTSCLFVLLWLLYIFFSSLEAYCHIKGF

IC30 [nM]	Compound
> 10000	COc1cc(CN2CCC(N3C(=O)Nc4ccccc4C3c3ccccc3)CC2)cc(OC)c1 (stereo not given)
480	O=C1Nc2ccccc2C(c2ccccc2)N1C1CCN(Cc2ccncc2)CC1 (stereo not given)
580	CCOc1cccc(CN2CCC(N3C(=O)Nc4ccccc4C3c3ccccc3)CC2)c1 (stereo not given)
17	O=C1Nc2ccccc2C(c2ccccc2)N1C1CCN(Cc2ccccc2)CC1 (stereo not given)
560	Cc1cccc(CN2CCC(N3C(=O)Nc4ccccc4C3c3ccccc3)CC2)c1 (stereo not given)
9000	O=C1Nc2ccccc2C(c2ccccc2)N1C1CCN(Cc2ccccc2Cl)CC1 (stereo not given)
390	O=C1Nc2ccccc2C(c2ccccc2)N1C1CCN(Cc2ccccn2)CC1 (stereo not given)
160	O=C1Nc2ccccc2C(c2ccccc2)N1C1CCN(Cc2cccnc2)CC1 (stereo not given)
> 10000	COc1cc(CN2CCC(N3C(=O)Nc4ccccc4C3c3ccccc3)CC2)cc(OC)c1OC (stereo not given)
8300	O=C1Nc2ccccc2C(c2ccccc2)N1C1CCN(Cc2ccco2)CC1 (stereo not given)
540	O=C1Nc2ccccc2C(c2ccccc2)N1C1CCN(Cc2cccc(Cl)c2)CC1 (stereo not given)
1700	O=C1Nc2ccccc2C(c2ccccc2)N1C1CCN(Cc2cccs2)CC1 (stereo not given)
17	O=C1Nc2ccccc2C(c2ccccc2)N1C1CCN(Cc2ccoc2)CC1 (stereo not given)
8.4	COc1cccc(CN2CCC(N3C(=O)Nc4ccccc4C3c3ccccc3)CC2)c1 (stereo not given)
490	COCc1cccc(CN2CCC(N3C(=O)Nc4ccccc4C3c3ccccc3)CC2)c1 (stereo not given)
620	O=C1Nc2ccccc2C(c2ccccc2)N1C1CCN(Cc2ccc(Cl)cc2)CC1 (stereo not given)
250	COc1ccc(CN2CCC(N3C(=O)Nc4ccccc4C3c3ccccc3)CC2)cc1 (stereo not given)
> 10000	COc1ccccc1CN1CCC(N2C(=O)Nc3ccccc3C2c2ccccc2)CC1 (stereo not given)
10000	CSCC[C@H](NC(=O)[C@@H](N)C(C)C)C(=O)N[C@@H](CCCN=C(N)N)C(=O)N[C@@H](Cc1ccccc1)C(N)=O (H-VMRF-NH2)
3900	O=C1Nc2ccccc2C(c2ccccc2)N1C1CCN(Cc2ccsc2)CC1 (stereo not given)

From ChEMBL document CHEMBL1149425, “A novel class of sodium/calcium exchanger inhibitors: design, synthesis, and structure-activity relationships of 4-phenyl-3-(piperidin-4-yl)-3,4-dihydro-2(1H)-quinazolinone derivatives” (Bioorg Med Chem Lett, 2006)
